Results taken from patent US20240400577A1, “MODULATORS OF PROTEIN KINASES” (VIBLIOME THERAPEUTICS, LLC, priority 2021, published 2024).

Legend:
Assay in all cases: Kinase panel enzymatic inhibition assay (Nanosyn)
Format in all cases: biochemical
[1] = molecular target: T1, AXL (Homo sapiens, UniProt P30530); conditions: ATP at Km; 30-minute pre-incubation; read-out: kinase inhibition in terms of IC50, AXL
T1 construct: Nanosyn (contract laboratory that ran the panel)
T1 sequence (P30530 26-894): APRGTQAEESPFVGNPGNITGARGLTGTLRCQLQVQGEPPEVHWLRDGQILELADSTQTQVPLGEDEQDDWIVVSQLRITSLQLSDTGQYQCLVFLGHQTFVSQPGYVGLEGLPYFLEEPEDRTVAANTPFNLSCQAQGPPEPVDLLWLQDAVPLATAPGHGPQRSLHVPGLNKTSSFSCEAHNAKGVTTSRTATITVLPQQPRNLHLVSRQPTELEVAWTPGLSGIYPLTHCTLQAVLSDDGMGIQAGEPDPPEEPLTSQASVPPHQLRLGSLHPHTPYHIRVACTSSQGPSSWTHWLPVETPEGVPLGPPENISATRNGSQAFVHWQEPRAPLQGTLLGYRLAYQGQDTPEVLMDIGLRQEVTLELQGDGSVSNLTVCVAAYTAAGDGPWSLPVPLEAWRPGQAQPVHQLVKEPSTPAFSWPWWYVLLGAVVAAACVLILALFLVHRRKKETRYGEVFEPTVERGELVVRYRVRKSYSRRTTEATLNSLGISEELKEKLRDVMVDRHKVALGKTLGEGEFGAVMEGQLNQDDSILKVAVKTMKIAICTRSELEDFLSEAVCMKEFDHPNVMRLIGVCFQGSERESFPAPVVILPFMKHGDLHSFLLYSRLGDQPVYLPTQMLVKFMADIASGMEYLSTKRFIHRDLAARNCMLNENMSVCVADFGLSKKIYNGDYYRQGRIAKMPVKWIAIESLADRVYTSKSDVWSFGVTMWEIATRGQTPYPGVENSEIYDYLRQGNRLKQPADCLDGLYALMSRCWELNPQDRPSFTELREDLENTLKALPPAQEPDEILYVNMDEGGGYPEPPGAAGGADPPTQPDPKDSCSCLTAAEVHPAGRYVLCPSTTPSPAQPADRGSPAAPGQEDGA
In short: (§1)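 Single-point screen: compound 5 μM, ATP at Km per kinase, 30 min pre-incubation. Readout by mobility shift (Caliper LabChip), ADP detection or TR-fluorescence. Reported as % inhibition or IC50.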

[2] = molecular target: T2, PLK1 (Homo sapiens, UniProt P53350); conditions: ATP at Km; 30-minute pre-incubation; read-out: kinase inhibition in terms of IC50, PLK1
T2 construct: Nanosyn (contract laboratory that ran the panel)
In short: as §1

[3] = molecular target: T3, PLK4 (Homo sapiens, UniProt O00444); conditions: ATP at Km; 30-minute pre-incubation; read-out: kinase inhibition in terms of IC50, PLK4
T3 construct: Nanosyn (contract laboratory that ran the panel)
T3 sequence (O00444 1-970): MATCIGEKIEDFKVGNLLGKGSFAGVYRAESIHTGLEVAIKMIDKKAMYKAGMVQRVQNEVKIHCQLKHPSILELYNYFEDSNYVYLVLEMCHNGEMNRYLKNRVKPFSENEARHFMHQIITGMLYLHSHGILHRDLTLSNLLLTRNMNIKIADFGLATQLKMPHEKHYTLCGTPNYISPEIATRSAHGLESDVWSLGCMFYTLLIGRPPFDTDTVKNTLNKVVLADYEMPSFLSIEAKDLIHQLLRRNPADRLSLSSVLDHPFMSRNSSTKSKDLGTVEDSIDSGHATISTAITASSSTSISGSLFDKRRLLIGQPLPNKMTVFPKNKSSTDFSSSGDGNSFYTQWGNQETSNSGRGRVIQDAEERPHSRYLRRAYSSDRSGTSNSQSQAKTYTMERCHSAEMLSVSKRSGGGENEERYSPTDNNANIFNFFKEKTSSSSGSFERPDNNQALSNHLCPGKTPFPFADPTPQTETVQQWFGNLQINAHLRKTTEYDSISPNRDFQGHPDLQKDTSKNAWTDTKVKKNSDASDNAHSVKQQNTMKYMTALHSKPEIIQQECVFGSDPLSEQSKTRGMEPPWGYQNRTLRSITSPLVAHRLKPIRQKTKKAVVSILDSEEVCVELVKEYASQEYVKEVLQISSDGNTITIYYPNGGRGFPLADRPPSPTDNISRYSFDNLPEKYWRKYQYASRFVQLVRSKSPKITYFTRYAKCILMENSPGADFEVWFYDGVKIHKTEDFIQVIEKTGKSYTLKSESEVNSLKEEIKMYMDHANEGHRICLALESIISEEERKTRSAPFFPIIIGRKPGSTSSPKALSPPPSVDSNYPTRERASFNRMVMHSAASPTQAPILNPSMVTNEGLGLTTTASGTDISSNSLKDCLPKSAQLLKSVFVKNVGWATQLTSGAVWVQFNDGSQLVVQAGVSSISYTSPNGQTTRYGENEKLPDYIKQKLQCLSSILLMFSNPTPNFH
In short: as §1

[4] = molecular target: T4, SYK (Homo sapiens, UniProt P43405); conditions: ATP at Km; 30-minute pre-incubation; read-out: kinase inhibition in terms of IC50, SYK
T4 construct: purchased Nanosyn
In short: as §1

[5] = molecular target: T5, TAK1-TAB1 (Homo sapiens, UniProt O43318); conditions: ATP at Km; 30-minute pre-incubation; read-out: kinase inhibition in terms of IC50, TAK1-TAB1
T5 construct: purchased Nanosyn
T5 sequence (O43318 with tags, fused parts or gaps limits assumed): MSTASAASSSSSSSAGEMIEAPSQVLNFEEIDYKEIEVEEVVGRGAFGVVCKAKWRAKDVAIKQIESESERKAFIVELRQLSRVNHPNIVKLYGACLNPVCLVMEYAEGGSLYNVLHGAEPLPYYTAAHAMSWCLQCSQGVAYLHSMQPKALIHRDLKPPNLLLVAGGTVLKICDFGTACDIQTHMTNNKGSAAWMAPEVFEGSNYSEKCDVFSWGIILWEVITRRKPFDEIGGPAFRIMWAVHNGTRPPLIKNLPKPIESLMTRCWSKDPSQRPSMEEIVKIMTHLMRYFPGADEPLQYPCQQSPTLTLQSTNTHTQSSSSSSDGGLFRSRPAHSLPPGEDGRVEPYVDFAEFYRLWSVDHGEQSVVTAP
In short: as §1

T2 sequence (P53350 whole entry): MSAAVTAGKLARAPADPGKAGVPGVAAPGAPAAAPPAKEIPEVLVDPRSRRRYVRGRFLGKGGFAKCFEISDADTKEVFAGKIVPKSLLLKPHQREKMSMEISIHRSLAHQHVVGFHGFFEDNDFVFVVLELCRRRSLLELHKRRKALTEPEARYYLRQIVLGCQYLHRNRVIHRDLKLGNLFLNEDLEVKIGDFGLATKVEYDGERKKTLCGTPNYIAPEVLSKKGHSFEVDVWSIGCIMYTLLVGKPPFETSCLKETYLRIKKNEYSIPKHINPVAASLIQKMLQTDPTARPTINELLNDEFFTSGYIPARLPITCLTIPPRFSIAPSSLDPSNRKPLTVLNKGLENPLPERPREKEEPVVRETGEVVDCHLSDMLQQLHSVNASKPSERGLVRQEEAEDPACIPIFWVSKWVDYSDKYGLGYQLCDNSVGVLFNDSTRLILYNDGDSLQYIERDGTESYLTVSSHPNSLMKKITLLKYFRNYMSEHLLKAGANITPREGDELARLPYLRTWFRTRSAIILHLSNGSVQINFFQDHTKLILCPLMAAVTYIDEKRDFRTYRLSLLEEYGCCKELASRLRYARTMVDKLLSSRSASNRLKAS

## COc1cc2nccc(Oc3ccc(NC(=O)c4cc(S(C)(=O)=O)n(-c5ccc(F)cc5)n4)cc3F)c2cc1OC [Ex73, N-(4-((6,7-dimethoxyquinolin-4-yl)oxy)-3-fluorophenyl)-1-(4-fluorophenyl)-5-(methylsulfonyl)-1H-pyrazole-3-carboxamide]
[1]
  IC50: < 0.5 µM
[2]
  IC50: ≥ 10 µM
[3]
  IC50: < 0.5 µM
[4]
  IC50: ≥ 10 µM
[5]
  IC50: ≥ 10 µM

## COc1cc2nccc(Oc3ccc(NC(=O)c4cc(S(C)(=O)=O)n(-c5ccc(F)cc5)n4)cc3)c2cc1OC [Ex72, N-(4-((6,7-dimethoxyquinolin-4-yl)oxy)phenyl)-1-(4-fluorophenyl)-5-(methylsulfonyl)-1H-pyrazole-3-carboxamide]
[1]
  IC50: < 0.5 µM
[2]
  IC50: ≥ 10 µM
[3]
  IC50: 0.5 to 1 µM
[4]
  IC50: 1 to 10 µM
[5]
  IC50: ≥ 10 µM

## COc1cc2nccc(Oc3ccc(NC(=O)c4cc(S(C)(=O)=O)n(-c5ccc(F)cc5)n4)c(F)c3)c2cc1OC [Ex71, N-(4-((6,7-dimethoxyquinolin-4-yl)oxy)-2-fluorophenyl)-1-(4-fluorophenyl)-5-(methylsulfonyl)-1H-pyrazole-3-carboxamide]
[1]
  IC50: < 0.5 µM
[2]
  IC50: ≥ 10 µM
[3]
  IC50: 1 to 10 µM
[4]
  IC50: ≥ 10 µM
[5]
  IC50: ≥ 10 µM
